The series in a line: Solubility in water. It is filed as physicochemical. The note with it: hydrochloride.

≈ marks a conversion by molar mass, not a printed value.

For orientation: solubility means how much of the substance goes into solution per volume. A lower solubility goes with a poorly soluble substance.

Turning to `CNC1C=CC2(CC1)c1ccccc1C=Cc1ccccc12` (stereo not shown) [Example 12], the solubility is roughly 10000 µg/mL (≈ 34.8 mM).

The record behind these values is patent US4053632A, “Compounds of spiro-amine type and methods for their use” (priority 1971, dated 1977).
